For assay [1], the target named is Histamine H1 receptor (Homo sapiens) (UniProt P35367). Kind of assay: Antagonist activity at human recombinant histamine H1 receptor expressed in Sf9 cells coexpressing RGS4 assessed as inhibition of histamine-induced […] hydrolysis preincubated for 2 mins before [gamma32P]GTP addition measured after 20 mins by steady-state GTPase activity assay. Format: functional.

The target in assay [2] is T1, Histamine H3 receptor (Homo sapiens, UniProt Q9Y5N1). Kind of assay: Antagonist activity at human recombinant histamine H3 receptor expressed in Sf9 cells coexpressing Galphai2,Gbeta1gamma2 and RGS4 assessed as inhibition of histamine-induced […] hydrolysis preincubated for 2 mins before [gamma32P]GTP addition measured after 20 mins by steady-state GTPase activity assay. The format is functional.

Assay [3] addresses T1, Histamine H3 receptor. Put plainly: Intrinsic activity at human recombinant histamine H3 receptor expressed in Sf9 cells coexpressing Galphai2,Gbeta1gamma2 and RGS4 preincubated for 2 mins before [gamma32P]GTP addition measured after 20 mins by steady-state GTPase activity assay relative to histamine.
Assay [4] has as its target T2, Histamine H2 receptor (Cavia porcellus, UniProt P47747). Kind of assay: Agonist activity at guinea pig atrium histamine H2 receptor assessed as potentiation of histamine-induced response after 30 mins. Details: species or system Cardiac atrium.
Assay [5] deals with T3, Histamine H2 receptor (Homo sapiens, UniProt P25021). Put plainly: Agonist activity at human recombinant histamine H2 receptor-Gsalphas fusion protein expressed in Sf9 cells preincubated for 2 mins before [gamma32P]GTP addition measured after 20 mins by steady-state GTPase activity assay.
Assay [6] has as its target Histamine H2 receptor (Cavia porcellus) (UniProt P47747). Put plainly: Agonist activity at guinea pig histamine H2 receptor assessed as potentiation of histamine-induced response after 30 mins relative to histamine.
For assay [7], the target named is T4, Histamine H4 receptor (Homo sapiens, UniProt Q9H3N8). Kind of assay: Agonist activity at human recombinant histamine H4 receptor-RGS19 fusion protein expressed in Sf9 cells coexpressing Galphai2,Gbeta1gamma2 preincubated for 2 mins before [gamma32P]GTP addition measured after 20 mins by steady-state GTPase activity assay.
Assay [8] addresses T3, Histamine H2 receptor. Put plainly: Intrinsic activity at human recombinant histamine H2 receptor-Gsalphas fusion protein expressed in Sf9 cells preincubated for 2 mins before [gamma32P]GTP addition measured after 20 mins by steady-state GTPase activity assay relative to histamine.
In the next assay the target is Histamine H1 receptor (Cavia porcellus, UniProt P31389). Put plainly: Antagonist activity at guinea pig ileum histamine H1 receptor assessed as inhibition of histamine-induced response after 10 to 15 mins. Format: tissue-based. The conditions noted are these: read-out: pA2 (converted).
In assay [9] the target is Histamine H1 receptor (Homo sapiens) (UniProt P35367). Put plainly: Intrinsic activity at human recombinant histamine H1 receptor expressed in Sf9 cells coexpressing RGS4 preincubated for 2 mins before [gamma32P]GTP addition measured after 20 mins by steady-state GTPase activity assay relative to histamine.
Assay [10] has as its target T4, Histamine H4 receptor. Put plainly: Intrinsic activity at human recombinant histamine H4 receptor-RGS19 fusion protein expressed in Sf9 cells coexpressing Galphai2,Gbeta1gamma2 preincubated for 2 mins before [gamma32P]GTP addition measured after 20 mins by steady-state GTPase activity assay relative to histamine.
In assay [11] the target is Histamine H2 receptor (Cavia porcellus) (UniProt P47747). Kind of assay: Agonist activity at guinea pig histamine H2 receptor assessed as potentiation of histamine-induced response at 30 uM after 30 mins relative to histamine.
In assay [12] the target is T3, Histamine H2 receptor. Put plainly: Antagonist activity at human recombinant histamine H2 receptor-Gsalphas fusion protein expressed in Sf9 cells assessed as inhibition of histamine-induced […] hydrolysis preincubated for 2 mins before [gamma32P]GTP addition measured after 20 mins by steady-state GTPase activity assay. Format: functional.
The target of assay [13] is T2, Histamine H2 receptor. Put plainly: (§1) Antagonist activity at guinea pig histamine H2 receptor assessed as inhibition of histamine-induced response after 30 mins. The conditions noted are these: read-out: pA2 (converted).
Assay [14] has as its target Histamine H2 receptor (Cavia porcellus) (UniProt P47747). Kind of assay: Antagonist activity at guinea pig histamine H2 receptor assessed as reduction of histamine-induced maximal response after 30 mins.
Assay [15] has as its target T2, Histamine H2 receptor. Put plainly: Agonist activity at guinea pig histamine H2 receptor assessed as potentiation of histamine-induced response at after 30 mins.
Assay [16] addresses T4, Histamine H4 receptor. Put plainly: Antagonist activity at human recombinant histamine H4 receptor-RGS19 fusion protein expressed in Sf9 cells coexpressing Galphai2,Gbeta1gamma2 assessed as inhibition of histamine-induced […] hydrolysis preincubated for 2 mins before [gamma32P]GTP addition measured after 20 mins by steady-state GTPase activity assay. Format: functional.

Assay [17] has as its target Histamine H2 receptor (Cavia porcellus) (UniProt P47747). Put plainly: Agonist activity at guinea pig histamine H2 receptor assessed as potentiation of histamine-induced response at 10 uM after 30 mins relative to histamine.
Assay [18] addresses T1, Histamine H3 receptor. Kind of assay: Intrinsic activity at human recombinant histamine H3 receptor expressed in Sf9 cells coexpressing Galphai2,Gbeta1gamma2 and RGS4 assessed as [35S]GTPgammaS binding at 10 uM after 90 mins by liquid scintillation counting relative to histamine. The format is functional.
The target in assay [19] is T4, Histamine H4 receptor. Kind of assay: Intrinsic activity at human recombinant histamine H4 receptor-RGS19 fusion protein expressed in Sf9 cells coexpressing Galphai2,Gbeta1gamma2 assessed as [35S]GTPgammaS binding at 10 uM after 90 mins by liquid scintillation counting relative to histamine. The format is functional. A general note: Binding of GTPγS marks nucleotide exchange on a G protein.

Assay [20] in a line: Selectivity ratio of EC50 for human recombinant histamine H2 receptor-Gsalphas fusion protein expressed in Sf9 cells to EC50 for human recombinant histamine H4 receptor-RGS19 fusion protein expressed in Sf9 cells coexpressing Galphai2,Gbeta1gamma2.
Assay [21] is described as follows: Selectivity ratio of EC50 for human recombinant histamine H3 receptor expressed in Sf9 cells coexpressing Galphai2,Gbeta1gamma2 and RGS4 to EC50 for human recombinant histamine H4 receptor-RGS19 fusion protein expressed in Sf9 cells coexpressing Galphai2,Gbeta1gamma2.
For assay [22], the target named is T4, Histamine H4 receptor. Kind of assay: Agonist activity at human recombinant histamine H4 receptor-RGS19 fusion protein expressed in Sf9 cells coexpressing Galphai2,Gbeta1gamma2 assessed as [35S]GTPgammaS binding after 90 mins by liquid scintillation counting. The format is functional.
Assay [23] in a line: Selectivity ratio of EC50 for human recombinant histamine H1 receptor expressed in Sf9 cells coexpressing RGS4 to EC50 for human recombinant histamine H4 receptor-RGS19 fusion protein expressed in Sf9 cells coexpressing Galphai2,Gbeta1gamma2.
Assay [24] concerns the target T1, Histamine H3 receptor. Put plainly: Antagonist activity at human recombinant histamine H3 receptor expressed in Sf9 cells coexpressing Galphai2,Gbeta1gamma2 and RGS4 assessed as inhibition of histamine-induced [35S]GTPgammaS binding after 90 mins by liquid scintillation counting. The format is functional.
Assay [25] concerns the target T3, Histamine H2 receptor. Kind of assay: Antagonist activity at human recombinant histamine H2 receptor-Gsalphas fusion protein expressed in Sf9 cells assessed as inhibition of histamine-induced [35S]GTPgammaS binding after 90 mins by liquid scintillation counting. Format: functional.
The target of assay [26] is T3, Histamine H2 receptor. Kind of assay: Intrinsic activity at human recombinant histamine H2 receptor-Gsalphas fusion protein expressed in Sf9 cells assessed as [35S]GTPgammaS binding at 10 uM after 90 mins by liquid scintillation counting relative to histamine. The format is functional.
Assay [27] deals with Histamine H2 receptor (Cavia porcellus) (UniProt P47747). The assay is described as §1.

The source made the active and inactive calls. No cut-off for these calls is given here. A value given as a limit tells only on which side of the number the result lay.

The term pKb denotes the Kb on a negative log10 scale, so that one unit is a factor of ten. In general, EC50 refers to the concentration at which the effect is half-maximal. In general, Emax refers to the maximal effect, on the per cent scale that the assay sets.

Chain of Histamine H2 receptor (Cavia porcellus) (P47747 whole entry, the tested form may be a part): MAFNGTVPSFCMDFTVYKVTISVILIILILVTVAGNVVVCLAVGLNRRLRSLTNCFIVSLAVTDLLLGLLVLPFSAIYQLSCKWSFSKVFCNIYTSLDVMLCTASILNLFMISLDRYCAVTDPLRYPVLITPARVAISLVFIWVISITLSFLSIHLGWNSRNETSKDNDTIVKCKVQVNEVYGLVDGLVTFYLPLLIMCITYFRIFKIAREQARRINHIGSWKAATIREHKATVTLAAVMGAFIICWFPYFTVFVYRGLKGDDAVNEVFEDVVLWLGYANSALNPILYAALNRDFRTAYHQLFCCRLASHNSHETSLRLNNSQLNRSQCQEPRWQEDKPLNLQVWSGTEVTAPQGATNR
T2 sequence (P47747 whole entry, the tested form may be a part): as above
Chain of Histamine H1 receptor (P31389 whole entry): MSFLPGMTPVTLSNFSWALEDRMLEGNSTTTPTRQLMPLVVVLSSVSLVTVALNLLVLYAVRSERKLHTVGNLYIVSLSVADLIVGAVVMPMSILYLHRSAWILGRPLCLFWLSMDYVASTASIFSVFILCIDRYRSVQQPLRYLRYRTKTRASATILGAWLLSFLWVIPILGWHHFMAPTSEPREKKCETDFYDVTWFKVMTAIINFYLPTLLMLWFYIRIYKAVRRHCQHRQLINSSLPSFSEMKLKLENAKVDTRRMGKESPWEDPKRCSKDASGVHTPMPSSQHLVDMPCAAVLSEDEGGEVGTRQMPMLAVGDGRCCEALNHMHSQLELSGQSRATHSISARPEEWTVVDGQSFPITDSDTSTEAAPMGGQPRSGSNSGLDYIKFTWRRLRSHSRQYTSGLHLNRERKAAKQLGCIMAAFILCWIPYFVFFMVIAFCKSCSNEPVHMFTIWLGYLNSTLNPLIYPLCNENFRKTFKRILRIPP
Chain of Histamine H1 receptor (Homo sapiens) (P35367 whole entry, the tested form may be a part): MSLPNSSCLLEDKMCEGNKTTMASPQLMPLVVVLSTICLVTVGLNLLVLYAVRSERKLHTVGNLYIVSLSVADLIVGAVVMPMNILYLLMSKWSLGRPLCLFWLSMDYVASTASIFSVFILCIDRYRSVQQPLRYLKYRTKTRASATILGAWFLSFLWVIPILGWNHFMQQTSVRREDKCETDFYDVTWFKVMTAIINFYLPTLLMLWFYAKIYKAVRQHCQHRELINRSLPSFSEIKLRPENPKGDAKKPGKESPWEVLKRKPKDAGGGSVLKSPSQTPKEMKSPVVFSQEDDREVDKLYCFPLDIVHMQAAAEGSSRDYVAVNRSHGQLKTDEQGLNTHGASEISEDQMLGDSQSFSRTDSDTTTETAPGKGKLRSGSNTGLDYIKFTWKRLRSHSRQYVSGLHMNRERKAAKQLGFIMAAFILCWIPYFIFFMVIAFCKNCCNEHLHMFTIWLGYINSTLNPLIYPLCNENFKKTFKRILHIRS
T3 sequence (P25021 whole entry, the tested form may be a part): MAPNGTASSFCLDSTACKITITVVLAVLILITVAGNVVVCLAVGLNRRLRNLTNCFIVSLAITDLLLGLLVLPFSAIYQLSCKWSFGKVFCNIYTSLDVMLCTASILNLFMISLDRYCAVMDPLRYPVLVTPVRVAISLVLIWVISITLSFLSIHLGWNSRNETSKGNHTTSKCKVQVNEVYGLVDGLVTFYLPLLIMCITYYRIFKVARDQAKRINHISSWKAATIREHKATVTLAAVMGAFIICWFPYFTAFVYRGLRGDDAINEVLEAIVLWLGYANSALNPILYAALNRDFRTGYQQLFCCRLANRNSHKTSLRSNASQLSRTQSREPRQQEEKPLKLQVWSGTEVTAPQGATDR
T1 sequence (Q9Y5N1 whole entry): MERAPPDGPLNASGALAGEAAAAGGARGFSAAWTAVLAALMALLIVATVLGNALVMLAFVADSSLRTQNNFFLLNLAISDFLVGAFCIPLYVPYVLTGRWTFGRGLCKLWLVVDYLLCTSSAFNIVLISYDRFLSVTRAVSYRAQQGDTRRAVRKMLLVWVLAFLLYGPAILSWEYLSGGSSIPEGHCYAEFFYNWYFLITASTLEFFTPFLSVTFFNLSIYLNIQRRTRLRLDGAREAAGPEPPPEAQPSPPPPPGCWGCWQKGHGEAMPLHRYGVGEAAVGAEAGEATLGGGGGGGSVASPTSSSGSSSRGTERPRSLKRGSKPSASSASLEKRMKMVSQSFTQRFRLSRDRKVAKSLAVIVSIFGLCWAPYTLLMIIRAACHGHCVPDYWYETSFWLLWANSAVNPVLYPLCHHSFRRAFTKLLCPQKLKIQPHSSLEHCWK
T4 sequence (Q9H3N8 whole entry, the tested form may be a part): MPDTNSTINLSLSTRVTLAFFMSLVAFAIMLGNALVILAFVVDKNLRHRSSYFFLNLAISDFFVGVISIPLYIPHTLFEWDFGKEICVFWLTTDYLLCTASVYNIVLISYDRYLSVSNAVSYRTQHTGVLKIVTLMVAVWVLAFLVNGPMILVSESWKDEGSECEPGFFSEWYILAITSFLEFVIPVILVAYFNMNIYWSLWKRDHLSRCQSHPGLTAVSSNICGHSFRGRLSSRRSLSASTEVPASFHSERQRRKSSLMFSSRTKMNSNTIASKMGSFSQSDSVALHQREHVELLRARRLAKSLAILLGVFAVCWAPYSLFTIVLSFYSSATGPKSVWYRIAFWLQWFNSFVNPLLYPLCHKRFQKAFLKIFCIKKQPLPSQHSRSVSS

`N/C(=N\C(=O)CC(c1ccccc1)c1ccccc1)NCCCc1ncn[nH]1`: the pKb (in assay [1]; on Histamine H3 receptor [2]) was below 5 throughout. The figures for the Intrinsic activity (on Histamine H3 receptor [3]; on Histamine H2 receptor [8]; in assay [9]) were -0.03, 0.42 and 0.06, respectively. Moreover, the values for the EC50 on Histamine H2 receptor [4] and at Histamine H2 receptor [5] were 204 nM and 407 nM, respectively. In addition, the Efficacy in assay [6] was determined as 83%. Also, the pEC50 result on Histamine H4 receptor [7] was “inactive”. Also, the Kb on Histamine H1 receptor was 1620 nM.

For the compound `CC(CC(=O)/N=C(\N)NCCCc1ncc[nH]1)c1ccccc1` (stereo not given), the figures for the negative-log Kb (pKb) (in assay [1]; at Histamine H3 receptor [2]; on Histamine H2 receptor [12]) were below 5, 5.41 and 5.3, respectively. Besides, the Intrinsic activity at Histamine H4 receptor [10] was 0.35; at Histamine H3 receptor [3], -0.32; on Histamine H2 receptor [8] it was 0.03; in assay [9] it was 0.09. In addition, in assay [11], the Emax was found to be 54%. Moreover, the Kb at Histamine H2 receptor [13] was 12.6 µM. In addition, the pD'2 in assay [14] amounted to 4.44. In addition, on Histamine H4 receptor [7], the EC50 was 2880 nM.

As to `CC(CC(=O)/N=C(\N)NCCCc1ncn[nH]1)c1ccccc1` (stereo not given), the pKb (in assay [1]; at Histamine H3 receptor [2]) was below 5 in each case. Moreover, the Intrinsic activity is -0.03 on Histamine H3 receptor [3] and 0.66 on Histamine H2 receptor [8]. Besides, the EC50 at Histamine H2 receptor [5] is 741 nM; on Histamine H2 receptor [15] it was 100 nM. Moreover, the Efficacy in [6] came to 100%. In addition, the Kb at Histamine H2 receptor [13] was 0.479 µM; at Histamine H1 receptor it was 1480 nM. Besides, the pEC50 entry at Histamine H4 receptor [7] was “inactive”.

As for `CC(CC(=O)/N=C(\N)NCCCn1ccnc1)c1ccccc1` (stereo not given), the pKb (in assay [1]; at Histamine H3 receptor [2]; at Histamine H2 receptor [12]) was below 5 throughout. Further, the results for the Intrinsic activity on Histamine H4 receptor [10] and at Histamine H3 receptor [3] were 0.77 and -0.05, respectively. For the same compound, in assay [11], the Emax was determined as 69%. Also, the results for the Kb at Histamine H2 receptor [13] and on Histamine H1 receptor were above 31.6 µM and 1120 nM, respectively. In addition, the pD'2 in assay [14] stood at 4.16. Further, the EC50 on Histamine H4 receptor [7] is 1000 nM.

On to `CC(CC(=O)/N=C(\N)NCCCc1ccc(CN(C)C)o1)c1ccccc1` (stereo not given), for which the pKb was below 5 in [1], below 5 at Histamine H4 receptor [16], 5.92 at Histamine H3 receptor [2] and 6.52 on Histamine H2 receptor [12]. Moreover, the Intrinsic activity at Histamine H3 receptor [3] was -0.64; at Histamine H2 receptor [8] it was -0.12; in assay [9] it was 0.04. Further, in assay [6], the Efficacy stood at 0%. For the same compound, the maximum response (Emax) in [17] is 68%. For the same compound, on Histamine H1 receptor, the Kb was 3020 nM.

`Cc1[nH]cnc1CCCCN/C(=N\C#N)NCCSc1ccccc1`: the Intrinsic activity on Histamine H3 receptor [18] was -0.65; on Histamine H4 receptor [19], 0.37; on Histamine H2 receptor [26] it was -0.06; in assay [9], -0.03. Besides, the negative logarithm of the Kb (pKb) in assay [1] is below 5.3; on Histamine H3 receptor [24] it was 5.5; at Histamine H2 receptor [25] it was 5.36. The Ratio EC50 in assay [20], in assay [21] and in assay [23] was above 10 in each case. In addition, the EC50 at Histamine H4 receptor [22] is 245 nM.

With `CC(CC(=O)/N=C(\N)NCCCc1ccccn1)c1ccccc1` (stereo not given), the results for the pKb (in assay [1]; at Histamine H4 receptor [16]; at Histamine H3 receptor [2]) were 5.34, below 5 and below 5, respectively. The Intrinsic activity was -0.17 at Histamine H3 receptor [3], 0.3 at Histamine H2 receptor [8] and 0.21 in assay [9]. For the same compound, the EC50 is 195 nM at Histamine H2 receptor [4] and 832 nM on Histamine H2 receptor [5]. Besides, in assay [6], the Efficacy was 26%.

For `CC(CC(=O)/N=C(\N)NCCCc1ccncc1)c1ccccc1` (stereo not given), the pKb in [1] is below 5; at Histamine H4 receptor [16] it was below 5; at Histamine H3 receptor [2], below 5; on Histamine H2 receptor [12], 5.54. Also, the Intrinsic activity at Histamine H3 receptor [3] was -0.07; on Histamine H2 receptor [8], 0; in assay [9], 0.12. Moreover, in assay [27], the pD2 is 4.54. Moreover, the Kb on Histamine H2 receptor [13] was 19.1 µM. For the same compound, the pD'2 in [14] worked out at 4.54.

`CC(CC(=O)/N=C(\N)NCCCc1cn[nH]c1)c1ccccc1` (stereo not given): the pKb (in [1]; at Histamine H4 receptor [16]; at Histamine H3 receptor [2]) was below 5 in each case. The Intrinsic activity on Histamine H3 receptor [3] was found to be 0.04; on Histamine H2 receptor [8] it was 0.44. The EC50 was 468 nM on Histamine H2 receptor [4] and 240 nM at Histamine H2 receptor [5]. In addition, the Efficacy in assay [6] came out at 54%. In addition, the Kb at Histamine H1 receptor is 3800 nM.
